# In patent publication US8846746B2, “Pyrazole compound and pharmaceutical use thereof” (Japan Tobacco Inc., priority 2011, dated 2014):
# Molecular target: human SGLT1 (Homo sapiens (Human), UniProt P13866)
# Assay: SGLT1 inhibitory activity: 14C-AMG uptake into CHO-K1 cell line stably expressing human SGLT1
# Assay type: cell-based
# Conditions: 14C-AMG uptake, CHO-K1 cells expressing human SGLT1
# Outline: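 CHO-K1 cells stably expressing human SGLT1 were pre-incubated 20 min in Na(−) buffer (pH 7.4). Test compound in Na(+) buffer with BSA was added with ¹⁴C-AMG (8 kBq) plus unlabelled AMG (2 mM in the added solution) for 1 h at 37 °C.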
# human SGLT1, sequence (P13866 whole entry): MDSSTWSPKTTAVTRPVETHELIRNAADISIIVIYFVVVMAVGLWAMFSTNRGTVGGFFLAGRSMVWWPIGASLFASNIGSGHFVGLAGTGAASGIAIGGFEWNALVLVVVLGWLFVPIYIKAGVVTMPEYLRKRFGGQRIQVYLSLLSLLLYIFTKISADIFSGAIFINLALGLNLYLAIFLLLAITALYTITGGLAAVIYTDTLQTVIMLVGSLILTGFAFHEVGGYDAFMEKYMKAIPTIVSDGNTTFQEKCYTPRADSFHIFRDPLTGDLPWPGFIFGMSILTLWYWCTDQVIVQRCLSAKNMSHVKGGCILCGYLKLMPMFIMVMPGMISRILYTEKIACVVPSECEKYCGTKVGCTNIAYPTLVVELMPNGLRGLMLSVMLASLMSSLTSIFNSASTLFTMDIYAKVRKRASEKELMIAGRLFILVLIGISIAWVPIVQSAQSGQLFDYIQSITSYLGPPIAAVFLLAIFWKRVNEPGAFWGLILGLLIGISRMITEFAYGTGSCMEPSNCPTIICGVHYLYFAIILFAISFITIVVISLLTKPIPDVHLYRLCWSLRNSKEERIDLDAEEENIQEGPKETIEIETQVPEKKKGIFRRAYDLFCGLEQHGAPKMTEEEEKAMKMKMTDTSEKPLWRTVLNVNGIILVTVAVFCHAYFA
row,SMILES,IC50 [nM]
1,Cc1ccccc1-n1nc(NC(=O)[C@H]2CNC(=O)C2)cc1-c1cccc(C(F)(F)F)c1 [Example 224],6.3
2,Cc1ccccc1-n1nc(NC(=O)[C@H]2CNC(=O)C2)cc1-c1cccc(OCC(F)(F)F)c1 [Example 226],3.3
3,O=C1C[C@@H](C(=O)Nc2cc(-c3cccc(C(F)(F)F)c3)n(-c3ccccc3F)n2)CN1 [Example 228],8.6
4,Cc1ccc(-n2nc(NC(=O)[C@H]3CNC(=O)C3)cc2-c2cccc(C(F)(F)F)c2)cc1 [Example 230],12
5,Cc1ccc(-n2nc(NC(=O)[C@H]3CNC(=O)C3)cc2-c2cccc(OC(F)(F)F)c2)cc1 [Example 233],20

# The next lines start with the values.
row,IC50 [nM],SMILES
1,2.3,Cc1ccccc1-n1nc(NC(=O)[C@H]2CNC(=O)[C@@H]2C)cc1-c1cccc(OC(F)(F)F)c1 [Example 223]
2,3.9,Cc1ccccc1-n1nc(NC(=O)[C@H]2CNC(=O)[C@@H]2C)cc1-c1cccc(C(F)(F)F)c1 [Example 225]
3,2.1,Cc1ccccc1-n1nc(NC(=O)[C@H]2CNC(=O)[C@@H]2C)cc1-c1cccc(OCC(F)(F)F)c1 [Example 227]
4,3.1,C[C@H]1C(=O)NC[C@@H]1C(=O)Nc1cc(-c2cccc(C(F)(F)F)c2)n(-c2ccccc2F)n1 [Example 229]
5,6.7,Cc1ccc(-n2nc(NC(=O)[C@H]3CNC(=O)[C@@H]3C)cc2-c2cccc(C(F)(F)F)c2)cc1 [Example 231]
6,32,C[C@H]1C(=O)NC[C@@H]1C(=O)Nc1cc(-c2cccc(OC(F)(F)F)c2)n(CCC2CCOCC2)n1 [Example 232]
7,7.4,Cc1ccc(-n2nc(NC(=O)[C@H]3CNC(=O)[C@@H]3C)cc2-c2cccc(OC(F)(F)F)c2)cc1 [Example 234]

# Same assay, conditions: 14C-AMG uptake, CHO-K1 cells stably expressing human SGLT1
row,IC50 [nM],SMILES
1,3.4,"C[C@@H](OCc1cc(F)cc(-c2cc(NC(=O)[C@@H]3CNC(=O)C3)nn2-c2ccccc2)c1)C(F)(F)F [Example 235, (S)-5-oxopyrrolidine-3-carboxylic acid{5-[3-fluoro-5-((R)-2,2,2-trifluoro-1-methylethoxymethyl)phenyl]-1-phenyl-1H-pyrazol-3-yl}amide]"
2,5.35,"C[C@@H](OCc1cc(F)cc(-c2cc(NC(=O)[C@@H]3CNC(=O)C3)nn2-c2ccc(Cl)cc2)c1)C(F)(F)F [Example 236, (S)-5-oxopyrrolidine-3-carboxylic acid{1-(4-chlorophenyl)-5-[3-fluoro-5-((R)-2,2,2-trifluoro-1-methylethoxymethyl)phenyl]-1H-pyrazol-3-yl}amide]"
3,3.85,"C[C@@H](OCc1cc(F)cc(-c2cc(NC(=O)[C@@H]3CNC(=O)C3)nn2-c2ccccc2F)c1)C(F)(F)F [Example 237, (S)-5-oxopyrrolidine-3-carboxylic acid{1-(2-fluorophenyl)-5-[3-fluoro-5-((R)-2,2,2-trifluoro-1-methylethoxymethyl)phenyl]-1H-pyrazol-3-yl}amide]"
4,7.9,"C[C@@H](OCc1cccc(-c2cc(NC(=O)[C@@H]3CNC(=O)C3)nn2-c2ccc(F)cc2)c1)C(F)(F)F [Example 238, (S)-5-oxopyrrolidine-3-carboxylic acid{1-(4-fluorophenyl)-5-[3-((R)-2,2,2-trifluoro-1-methylethoxymethyl)phenyl]-1H-pyrazol-3-yl}amide]"
5,7,"C[C@@H](OCc1cc(F)cc(-c2cc(NC(=O)[C@@H]3CNC(=O)C3)nn2-c2ccc(F)cc2)c1)C(F)(F)F [Example 239, (S)-5-oxopyrrolidine-3-carboxylic acid{1-(4-fluorophenyl)-5-[3-fluoro-5-((R)-2,2,2-trifluoro-1-methylethoxymethyl)phenyl]-1H-pyrazol-3-yl}amide]"
6,20,"C[C@@H](OCc1cc(F)cc(-c2cc(NC(=O)[C@H]3CNC(=O)N3)nn2-c2ccc(F)cc2)c1)C(F)(F)F [Example 240, (R)-2-oxoimidazolidine-4-carboxylic acid{1-(4-fluorophenyl)-5-[3-fluoro-5-((R)-2,2,2-trifluoro-1-methylethoxymethyl)phenyl]-1H-pyrazol-3-yl}amide]"
